Starred links: 1 amine or outer side, 2 acyl side, 3 side chain; linkers in the order of their positions; H or OH if unused. Non-standard residues stand in square brackets, D forms with d. Groups on a side chain read outwards from the residue. Primed or numbered codes have the meaning given here. No end group written: not given here. *: point of attachment. alkynylpropionyl = alkynylpropionyl (alkyne-ethyl) group on the N-terminal spacer, reacted by CuAAC with the azide; PEG4′ = PEGylated amino acid with four EG (ethylene glycol) repeats; C16 diacid = O=C(O)CCCCCCCCCCCCCCC(=O)*; γGlu = O=C(O)[C@H](CCC(=O)[*:2])N[*:1]; Palmitoyl = CCCCCCCCCCCCCCCC(=O)*; Azidoacetyl = [N-]=[N+]=NCC(=O)*; Aib = CC(C)(N)C(=O)O
What was measured:
INS-1 cells = experiment: Alamar Blue cell viability / proliferation of INS-1 cells; assay type: cell-based, rat; details: 30 mM glucose, 100 nM, 24, 48 and 72 hours, compared with liraglutide, FIG. 19
Procedure: The cultured INS-1 cells were seeded at a density of 2×10^4 cells/well into 96-well plate in culture medium containing 10% […] bovine serum. After 48 hours, the cells were further incubated for another 24 hours for serum starvation. […] The cells cultured in normal medium being used as a control.
After being incubated for 24, 48 and 72 hours, the cell viability was then determined by Alamar Blue cell viability reagent kit (Invitrogen) in accordance with the manufacturer's instruction.
The cell proliferation ratio (see FIG. 19) was a ratio of the cell viability at multiple time points compared to 0 hour.

GLP-1 receptor = biological target: T1, GLP-1 receptor (Rattus norvegicus, UniProt P32301); experiment: GLP-1R-mediated cAMP generation in INS-1 cells (cAMP ELISA kit); assay type: cell-based; details: 100 nM, 2.5 mM glucose, 20 min, 37° C., FIG. 17
T1 construct: endogenous in cells; host or cells: rat INS-1 cells
T1 sequence (P32301 22-463): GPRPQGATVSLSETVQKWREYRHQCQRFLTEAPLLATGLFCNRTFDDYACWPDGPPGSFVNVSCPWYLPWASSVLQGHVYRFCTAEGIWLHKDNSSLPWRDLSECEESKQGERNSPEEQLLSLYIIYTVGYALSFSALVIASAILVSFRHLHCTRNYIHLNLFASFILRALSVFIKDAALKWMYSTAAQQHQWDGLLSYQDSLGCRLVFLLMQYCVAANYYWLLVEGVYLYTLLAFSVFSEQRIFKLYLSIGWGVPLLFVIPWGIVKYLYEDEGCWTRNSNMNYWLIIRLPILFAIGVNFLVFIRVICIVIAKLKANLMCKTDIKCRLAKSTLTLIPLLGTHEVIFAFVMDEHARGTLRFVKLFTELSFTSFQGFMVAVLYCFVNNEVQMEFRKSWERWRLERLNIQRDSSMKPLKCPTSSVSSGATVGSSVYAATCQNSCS
Procedure: Briefly, on day one, 2×10^5 INS-1 cells were plated in each well of a 24-well plate (ThermoFisher Scientific, Waltham, USA) with 500 μL/well culture medium. […] 100 nM liraglutide, as a positive control for cAMP generation, was added to control wells and incubated for 20 min at 37° C. Glucose at lower concentration (2.5 mM) was used as a negative control, and glucose at higher concentration (16 mM) was used as a control for glucose-induced cAMP generation. After 20 minutes of incubation, the medium was aspirated and 200 μl of 0.1N HCl was added to each well. The cells were scraped off from the surface by cell scraper and subjected to centrifugation at 1,000×g for 10 min at 4° C. The supernatant was transferred to new tubes and used for experiment in a 96-well plate. Cyclic AMP levels in the cells were measured at wavelength of 420 nm using SpectraMax M2 microplate reader (Molecular devices, San Jose, USA).

caspase-3 = experiment: Western blot of activated caspase-3 expression in INS-1 cells; assay type: cell-based, rat; details: xx mM glucose, normalized against β-actin, FIGS. 18A/18B
Description: Cleaved caspase-3 is a key executor in the apoptotic process. In this example, the expression of caspase-3 was detected using western blot analysis.
For the immunoblot analysis, proteins were separated using SDS-PAGE, and then transferred onto a polyvinylidene fluoride (PVDF) membrane. The membrane was probed using antibodies against caspase-3 (Cell Signaling Technology, Danvers, USA), followed by horseradish peroxidase-(HRP) conjugated secondary antibodies (Epitomics, Burlingame, USA). The membrane was visualized using an enhanced chemiluminescence system (GE Healthcare Life Sciences, Buckinghamshire, USA). The levels of protein expression were normalized against β-actin expression.

[1] = in vivo; cited from earlier work

| Substance | cell viability (cell proliferation ratio vs 0 hour) (INS-1 cells) | cellular cAMP level (GLP-1 receptor) | expression level of caspase-3 (caspase-3) | serum half-life [1] [h] |
| --- | --- | --- | --- | --- |
| GLP-1-Aib^8-EG4-2E-2FA-C16-acid: Aib-substituted GLP-1 agonist having an azide group coupled via CuAAC to alkyne-EG4-2E-2FA-C16-acid (Example 11) (peptide H[Aib]EGTFTSDVSSYLEGQAAK([γGlu-Azidoacetyl])LEFIAWLVRGRG; chain alkynylpropionyl-[PEG4′]K([γGlu-C16 diacid])[PEG4′]K([γGlu-C16 diacid])-OMe; also: triazole at chain A 20 to a chain's N-terminus) | significantly improved | elicited the expected rise in cellular cAMP level | – | – |
| GLP-1-Aib^8-EG4-2E-2FA-C16: Aib-substituted GLP-1 agonist having an azide group coupled via CuAAC to alkyne-EG4-2E-2FA-C16 (Example 10) (peptide H[Aib]EGTFTSDVSSYLEGQAAK([γGlu-Azidoacetyl])LEFIAWLVRGRG; chain alkynylpropionyl-[PEG4′]K([γGlu-Palmitoyl])[PEG4′]K([γGlu-Palmitoyl])-OMe; also: triazole at chain A 20 to a chain's N-terminus) | significantly improved | elicited the expected rise in cellular cAMP level | can effectively reduce the expression level of caspase-3 | – |
| albiglutide | – | – | – | 96 to 170 |

Source: patent publication US10993986B2, “Pharmaceutical constructs with enhanced binding affinity with albumin” (Immunwork Inc., priority 2017, dated 2021)
